These results are taken from patent publication US4869904A, “Sustained release drug preparation” (Nisshin Flour Milling Co., Ltd., priority 1986, dated 1989).

The data set in a line: Dissolution and release of powder samples in water (FIG. 2). The note with it: alone. The format is physicochemical. How it is done:
The formation of an inclusion complex of a medical compound with an alkylated cyclodextrin derivative in accordance with the process described above was confirmed by various methods such as powder X-ray diffraction, dissolution behavior, scanning electron microscope analysis, differential thermal analysis (DTA) and infrared absorption (IR). Inclusion complexes were prepared using diltiazem hydrochloride as an exemplary medical compound, and the behavior of dissolution and release of diltiazem from the inclusion complex in the powder form, as well as the behavior of dissolution and release of diltiazem from compressed tablets containing the inclusion complex were determined in order to confirm the complexing reaction and to evaluate the sustained release property, respectively. Further, the inclusion complex was administered orally to rats, and changes in the plasma concentration of the medical compound were then measured. While taking the determined dissolution and release behavior of the diltiazem into parallel consideration, the achievement of the sustained release property of the inclusion complex was confirmed. It was also proven that the dissolution and release rate of the medical compound, diltiazem, could be controlled at will, by using the ethylated cyclodextrins as the host compound for formation of inclusion complexes. […]

Structures are written as SMILES. Where a name gives a salt, the structure may show the parent alone.

Take `COc1ccc([C@@H]2Sc3ccccc3N(CCN(C)C)C(=O)[C@@H]2OC(C)=O)cc1` [diltiazem hydrochloride]: the “time to dissolution in water to an extent of 100%” value is recorded as “about 5 minutes”.
